Experimental data reported in patent US8361970B2, “Growth factor binding molecules” (University of South Florida, priority 2000, dated 2013).
“And” between values parts separate entries of the source, which are not always exact repeats. Equal entries are not always repeated. Where two headings read alike, the source gives them in different places.

Columns and labels:
[1] = tested on: IGF-1 stimulated MAP kinase activation; assay: Inhibition of IGF-1 stimulated MAP kinase (p42/p44) activation in IGFR/3T3 cells; format: cell-based
Procedure: (§1) In other experiments, starved NIH 3T3 cells (PDGF-AA, PDGF-BB, aFGF, bFGF), NIH 3T3 cells overexpressing EGFR. IGF-1R or Flk-1 and the human breast carcinoma SkBr3 that overexpresses ErbB2 (HRGβ) are pretreated with GFB-111 (100 μM) for 5 min before 10 min stimulation with the indicated growth factors at the concentrations shown above and aFGF (10 ng/ml), bFGF (50 ng/ml), IGF-1 (50 ng/ml) and HRGβ (10 ng/ml). Cell lysates are then immunoblotted with anti-phospho Erk1/Erk2 as described above.
The ability of the GFB library to block the ability of IGF-1 to stimulate the IFG-1 R tyrosine phosphorylation and MAP kinase activation is evaluated using the cell assay described above with IGF-1R/3T3 cells as target cell. […] A preferred embodiment of the invention is a compound that binds to an insulin-like growth factor-1, of the general structure III, wherein R is n-butyl, n-propyl, or benzyl, and X1, X2, X3, and X4 optionally comprise identical cyclic peptide loops of the general structure II, and wherein R1, R2, R3, and R4 are each amino acid side chains that define a tetrapeptide sequence, wherein said tetrapeptide is covalently attached at the amino and carboxy termini of said tetrapeptide to a 3-aminomethyl-5-aminobenzamide linking group.

PDGF-BB = target: T1, PDGF-BB (Homo sapiens, UniProt P01127); assay: Inhibition of [125I]-PDGF-BB binding to its receptor on NIH 3T3 cells; settings: FIG. 2C
T1 construct: host or cells: NIH 3T3 cells carry the receptor
T1 sequence (P01127 82-190 limits assumed): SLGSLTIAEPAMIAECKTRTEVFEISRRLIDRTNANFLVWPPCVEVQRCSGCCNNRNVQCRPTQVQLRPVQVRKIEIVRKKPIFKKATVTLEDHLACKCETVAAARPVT
Procedure: NIH 3T3 (PDGF) or NIH 3T3 cells overexpressing either EGFR (EGF), IGFR (IGF) or Flk-1 (VEGF), are incubated with [^125I]-PDGF, [^125I]-EGF, [^125I]-IGF or [^125I]-VEGF, respectively (50,000 cpm per well) and increasing concentrations of GFB-111 or GFB-116. Cells are incubated at 4° C. for 1-3 h. After discarding media, the cells are washed 3 times with PBS and three times with Tris 25 mM pH 8.0, 1% T-X-100, 10% glycerol, 1% SDS. Lysates plus wash are counted. Excess of cold growth factors is used to obtain non-specific binding levels.
Whether GFB 111 can block [^125I]-PDGF-BB specific binding in NIH 3T3 cells is determined by pre-treatment of the PDGF-BB with increasing concentrations of GFB-111. FIG. 2C illustrates that in the absence of GFB-111, [^125I]-PDGF-BB is bound by NIH3T3 cells. However, pre-treatment with increasing concentrations of GFB-111, results in a concentration-dependent decrease in PDGF-BB binding.

[2] = tested on: PDGF-stimulated PDGFR tyrosine phosphorylation; assay: Inhibition of PDGF-stimulated PDGFR tyrosine phosphorylation in NIH 3T3 cells (anti-phosphotyrosine Western blot); format: cell-based
Procedure: Starved NIH 3T3 cells are pretreated with various growth factor binding agents (0-100 μM) for 5 min before stimulation with PDGF (10 ng/mL) for 10 min. The cells are then harvested and lysed, and the proteins from the lysates separated by SDS-PAGE and immunoblotted with an anti-phosphotyrosine antibody (4G10: Upstate Biotechnology, Lake Placid, N.Y.). The phosphotyrosine PDGF receptor bands are scanned, and the concentrations of growth factor binding molecules that inhibited the ability of PDGF to stimulate PDGFR tyrosine phosphorylation by 50% are determined.
(§2) Starved NIII 3T3 cells (PDGF-BB and PDGF-AA), NIH 3T3 cells overexpressing either EGFR (EGF) or Flk-1 (VEGF) are pre-treated with the indicated concentrations of GFB-111 for 5 minutes before 10 minutes of stimulation with PDGF-BB (10 ng/ml), PDGF-AA (10 ng/ml), EGF (100 ng/ml) and VEGF (50 ng/ml). Cell lysates are run on SDS-PAGE gels, then transferred to nitrocellulose and Western blotted with anti-phosphotyrosine (4G 10) or anti-phosphorylated Erk1/Erk2 (New England Biolabs).
A novel series of protein surface binding agents are prepared that bind PDGF and disrupt its signaling function. The molecules are composed of a central calix[4] arene scaffold to which is attached four peptide loop domains (FIG. 1). The peptide loop component is based on a cyclic hexapeptide in which two residues are replaced by a 3-aminomethylbenzoate dipeptide mimetic containing a 5-amino substituent for attachment to the scaffold. The resulting molecules (as shown in Table 1) contain a functionalized and variable surface approximately 500 Å^2 in area. Several peptide loop sequences are synthesized (Table 1) to provide molecular surfaces with negatively and positively charged as well as hydrophobic regions designed to bind to complementary areas on the target growth factor. To identify PDGF binding molecules from this library, a cell-based screening assay is developed with NIH 3T3 cells to detect molecules capable of blocking PDGF-BB-induced tyrosine autophosphorylation of the PDGF receptor. The ability of the identified molecules to bind PDGF-BB and inhibit interaction with its receptor is then confirmed biochemically. Starved NIH 3T3 cells are pretreated for 5 min with the synthetic molecules prior to stimulation with PDGF for 10 min. The effects of the molecules on PDGF-stimulated receptor tyrosine phosphorylation are determined by the antiphosphotyrosine Western blotting as described in Table 1. […] GFB-111 has four-fold symmetry containing 4 identical peptide loops with negative and hydrophobic residues, GlyAspGlyTyr (GDGY) (SEQ ID NO. 6), that are designed to be complementary to the PDGF surface involved in binding to PDGFR. The area of PDGF-BB that binds PDGFR is composed primarily of positive and hydrophobic residues.
Starved NIH 3T3 cells are pretreated with the various GFBs (0-100 μM) for 5 min. prior to stimulation with PDGF (10 ng/ml) for 10 min. The cells are then harvested lysed and the proteins from the lysates are separated by SDS-PAGE and immunoblotted with an anti-phosphotyrosine antibody (4G10, Upstate Biotechnology, Lake Placid, N.Y.). The phosphotyrosine PDGF receptor bands are scanned and the concentrations of GFBs that inhibit the ability of PDGF to stimulate PDGFR tyrosine phosphorylation by 50% are determined. Data for each compound is representative of at least two independent experiments. FIG. 1 illustrates the structure of growth factor binders. GFBs are synthesized as described by Park, H. D. et al., Protein surface recognition by synthetic receptors: A route to novel sub-micromolar inhibitors for chymotrypsin. J. Am. Chem. Soc. 121, 8-13 (1999); and Hamuro, Y. et al., A calixarene with four peptide loops: An antibody mimic for recognition of protein surfaces. Angew. Chemie Int. Ed. Engl. 36, 2680-2683 (1997), each herein incorporated by reference in its respective entirety.

[3] = tested on: PDGF-stimulated Erk1/Erk2 activation; assay: Inhibition of PDGF-stimulated activation of MAPK Erk1/Erk2 (p44/p42) in NIH 3T3 cells; format: cell-based; settings: for Inhibition of PDGF-stimulated MAPKinase activation: FIG. 13
Procedure: as §2, §1

[4] = 100 μM, IGFR/3T3, IGF-1 stimulated
[5] = NIH 3T3, PDGF stimulated, head p42/Erk2 (p42 for GFB-132 to 137), read-out: (IC50) Inhibition p42/Erk2

Row | Molecule | % Inhibition at 100 μM p44 [1, 4] | Block of PDGF-BB binding to its receptor (PDGF-BB) | IC50 ([2]; 5 min pretreatment, PDGF 10 ng/ml 10 min, read-out: (IC50) Inhibition PDGFR-Y-P) | Inhibition of PDGF-stimulated MAPKinase activation [3] | IC50 [3, 5] | % Inhibition at 100 μM p42 [1, 4] | IGF-1-activation of Erk1/Erk2 ([1]; concentrations as high as 100 μM) | Concentration giving complete block of PDGF-BB stimulated receptor tyrosine phosphorylation [2] | IC50 ([2]; read-out: IC50 of inhibition of PDGF-BB stimulation of PDGF receptor tyrosine autophosphorylation) | IC50 ([3]; NIH 3T3, FIG. 3A, read-out: IC50 PDGF-dependent activation of Erk1) | IC50 ([3]; NIH 3T3, FIG. 3A, read-out: IC50 PDGF-dependent activation of Erk2)
1 | GKGK [GFB-116] | 25.2% and 43.5% | not | 40000 nM | does not | 28000 nM |  |  |  |  |  | 
2 | CCCCOc1c2cc(C(=O)Nc3cc4cc(c3)C(=O)NCC(=O)N[C@@H](CC(=O)O)C(=O)NCC(=O)N[C@@H](Cc3ccc(O)cc3)C(=O)NC4)cc1Cc1cc(C(=O)Nc3cc4cc(c3)C(=O)NCC(=O)N[C@@H](CC(=O)O)C(=O)NCC(=O)N[C@@H](Cc3ccc(O)cc3)C(=O)NC4)cc(c1OCCCC)Cc1cc(C(=O)Nc3cc4cc(c3)C(=O)NCC(=O)N[C@@H](CC(=O)O)C(=O)NCC(=O)N[C@@H](Cc3ccc(O)cc3)C(=O)NC4)cc(c1OCCCC)Cc1cc(C(=O)Nc3cc4cc(c3)C(=O)NCC(=O)N[C@@H](CC(=O)O)C(=O)NCC(=O)N[C@@H](Cc3ccc(O)cc3)C(=O)NC4)cc(c1OCCCC)C2 [GFB-111] | 10.7% | blocked |  | inhibits | 2600 nM | −18.4% | minimally affected | 3 µM | 250 nM | 800 nM | 1200 nM
